Experimental data published in the CheMixHub viscosity set.
± gives the uncertainty stated by the source.

Experiment: xn = mol fraction of the nth substance listed

CC1COC(=O)O1 (stereo not given) + C1CCOC1
viscosity [mPa·s]
Details | 298.15 K | 308.15 K | 318.15 K
101 kPa, x2 = 0.2 | 1.7 ± 0.02 | – | –
101 kPa, x2 = 0.6 | 0.862 ± 0.008 | – | –
101.33 kPa, x2 = 0.0524 | 2.227 ± 0.017 | 1.858 ± 0.014 | 1.589 ± 0.012
101.33 kPa, x2 = 0.1036 | 2.023 ± 0.015 | 1.709 ± 0.013 | 1.459 ± 0.011
101.33 kPa, x2 = 0.1429 | 1.87 ± 0.014 | 1.598 ± 0.012 | 1.373 ± 0.01
101.33 kPa, x2 = 0.2064 | 1.674 ± 0.012 | 1.432 ± 0.01 | 1.239 ± 0.0092
101.33 kPa, x2 = 0.2431 | 1.567 ± 0.011 | 1.351 ± 0.0099 | 1.167 ± 0.0086
101.33 kPa, x2 = 0.3083 | 1.393 ± 0.01 | 1.208 ± 0.0088 | 1.057 ± 0.0078
101.33 kPa, x2 = 0.3478 | 1.303 ± 0.0093 | 1.133 ± 0.0082 | 0.992 ± 0.0073
101.33 kPa, x2 = 0.4095 | 1.171 ± 0.0083 | 1.025 ± 0.0074 | –
101.33 kPa, x2 = 0.5098 | – | 0.8753 ± 0.0063 | 0.7782 ± 0.0057
101.33 kPa, x2 = 0.5621 | – | 0.8044 ± 0.0058 | 0.7222 ± 0.0053
101.33 kPa, x2 = 0.6094 | 0.8417 ± 0.006 | 0.7503 ± 0.0054 | 0.6719 ± 0.0049
101.33 kPa, x2 = 0.6479 | 0.7836 ± 0.0056 | 0.7016 ± 0.0051 | 0.6343 ± 0.0047
101.33 kPa, x2 = 0.7082 | 0.7171 ± 0.0051 | 0.6445 ± 0.0047 | 0.5827 ± 0.0043
101.33 kPa, x2 = 0.7635 | 0.6549 ± 0.0047 | 0.596 ± 0.0044 | –
101.33 kPa, x2 = 0.8062 | 0.6195 ± 0.0045 | – | 0.5098 ± 0.0038
101.33 kPa, x2 = 0.8388 | 0.5831 ± 0.0042 | 0.5361 ± 0.004 | 0.4805 ± 0.0037
101.33 kPa, x2 = 0.9035 | 0.5357 ± 0.0039 | 0.4872 ± 0.0037 | 0.4425 ± 0.0034
101.33 kPa, x2 = 0.9631 | 0.485 ± 0.0036 | 0.4449 ± 0.0034 | 0.404 ± 0.0032

CCCc1ccccc1 + C1CCOC1
303.15 K, 101.33 kPa
Details | viscosity [mPa·s]
x2 = 0.1005 | 0.732 ± 0.006
x2 = 0.199 | 0.709 ± 0.006
x2 = 0.3031 | 0.682 ± 0.006
x2 = 0.4019 | 0.656 ± 0.006
x2 = 0.4983 | 0.63 ± 0.006
x2 = 0.6024 | 0.596 ± 0.005
x2 = 0.7022 | 0.561 ± 0.005
x2 = 0.8014 | 0.525 ± 0.005
x2 = 0.8964 | 0.485 ± 0.005

C1CCOC1 + C1COCCO1
Details | viscosity [mPa·s]
298.15 K, 101 kPa, x2 = 0.5 | 0.6797 ± 0.018

CC1COC(=O)O1 (stereo not given) + C1COCCO1
303.15 K, 101.3 kPa
Details | viscosity [mPa·s]
x1 = 0.1007 | 1.1 ± 0.018
x1 = 0.2012 | 1.184 ± 0.02
x1 = 0.3015 | 1.273 ± 0.021
x1 = 0.4017 | 1.369 ± 0.023
x1 = 0.5017 | 1.472 ± 0.024
x1 = 0.6015 | 1.582 ± 0.026
x1 = 0.7018 | 1.706 ± 0.028
x1 = 0.8014 | 1.844 ± 0.03
x1 = 0.9008 | 1.992 ± 0.032

COc1ccccc1 + C1COCCO1
viscosity [mPa·s]
Details | 293.15 K | 298.15 K | 303.15 K | 308.15 K | 313.15 K | 323.15 K
101 kPa, x1 = 0.0973 | – | 1.154 ± 0.011 | 1.063 ± 0.01 | 0.9679 ± 0.0094 | 0.9021 ± 0.0089 | –
101 kPa, x1 = 0.1993 | – | 1.136 ± 0.011 | 1.04 ± 0.0099 | 0.9633 ± 0.0093 | 0.8956 ± 0.0089 | –
101 kPa, x1 = 0.3019 | – | 1.105 ± 0.01 | 1.021 ± 0.0097 | 0.9435 ± 0.0092 | 0.8729 ± 0.0087 | –
101 kPa, x1 = 0.4003 | – | 1.094 ± 0.01 | 1.011 ± 0.0096 | 0.9342 ± 0.0091 | 0.8659 ± 0.0087 | –
101 kPa, x1 = 0.4999 | – | – | – | 0.9209 ± 0.009 | 0.854 ± 0.0086 | –
101 kPa, x1 = 0.5976 | – | 1.06 ± 0.0099 | 0.983 ± 0.0094 | 0.9122 ± 0.009 | 0.8465 ± 0.0086 | –
101 kPa, x1 = 0.7024 | – | – | 0.9723 ± 0.0094 | 0.9001 ± 0.0089 | 0.8338 ± 0.0085 | –
101 kPa, x1 = 0.7992 | – | – | 0.9564 ± 0.0092 | 0.8957 ± 0.0089 | 0.8226 ± 0.0085 | –
101 kPa, x1 = 0.9003 | – | 1.019 ± 0.0096 | 0.9451 ± 0.0092 | 0.8765 ± 0.0087 | 0.8129 ± 0.0084 | –
101.3 kPa, x1 = 0.1191 | 1.251 ± 0.15 | – | 1.062 ± 0.13 | – | 0.916 ± 0.11 | 0.799 ± 0.096
101.3 kPa, x1 = 0.2422 | 1.218 ± 0.15 | – | 1.037 ± 0.12 | – | 0.898 ± 0.11 | 0.785 ± 0.094
101.3 kPa, x1 = 0.3646 | 1.223 ± 0.15 | – | 1.014 ± 0.12 | – | 0.879 ± 0.11 | 0.77 ± 0.093
101.3 kPa, x1 = 0.4786 | 1.195 ± 0.14 | – | 1.018 ± 0.12 | – | 0.882 ± 0.11 | 0.76 ± 0.091
101.3 kPa, x1 = 0.6021 | 1.16 ± 0.14 | – | 0.981 ± 0.12 | – | 0.853 ± 0.1 | 0.749 ± 0.09
101.3 kPa, x1 = 0.7164 | 1.125 ± 0.14 | – | 0.965 ± 0.12 | – | 0.84 ± 0.1 | 0.738 ± 0.089
101.3 kPa, x1 = 0.8783 | 1.099 ± 0.13 | – | 0.943 ± 0.11 | – | 0.822 ± 0.099 | 0.724 ± 0.087
